Results published in US20100285959A1, “HERBICIDAL MIXTURES” (priority 2006, published 2010).

Tests used:
field violet (VIOAR) = test: Test 24 growth chamber, postemergence; format: in vivo, Viola arvensis; settings: 17 DAA
Procedure: (§1) Plants were treated postemergence at the 2-4 leaf growth stage, and each treatment was replicated three times. […] Plants were watered as needed. […] Results for barley and wheat are the means across varieties of the three replicates, and results for the weeds are the means of the three replicates.

velvetleaf (ABUTH) = test: Test 15 greenhouse, postemergence; settings: 12 DAA
common chickweed (STEME) = test: Test 24 growth chamber, postemergence; format: in vivo, Stellaria media; settings: 17 DAA
Procedure: as §1

corn (ZEAMD) = test: Test 25 field trial, postemergence, growth as percent of control; format: in vivo, Zea mays ssp. indentata; settings: hybrid Pioneer 31G96 RR, Zea mays ssp. indentata (corn), in vivo
Excerpt: (§2) Corn seeds (hybrid ‘Pioneer 31G96 RR’) were planted in mid spring season, 3.8 cm deep in a clay loam soil having 2% organic matter and a pH of 6.6. Plots were 6.1 m long by 3.0 m wide with rows spaced 76 cm apart. Seeds were spaced 15 cm apart within the rows. The field was managed using conventional tillage practices. […] Giant ragweed and Pennsylvania smartweed could only be evaluated 14 days after application. […] Results are the means of the three replicates. This growth inhibition data was converted to results in the form of “plant growth as a percent of control plant growth” using the calculation “100 minus growth inhibition”.
(§3) When this form of Colby's Equation is used, if the observed effects on weeds are less than the expected values, the mixture is synergistic.

[1] = test system: Pennsylvania smartweed (POLPY); test: as above; format: in vivo, Polygonum pensylvanicum; settings: 14 DAA
Excerpt: as §2, §3

wild chamomile (MATCH) = test: Test 24 growth chamber, postemergence; format: in vivo, Matricaria chamomilla; settings: 17 DAA
Procedure: as §1

giant ragweed (AMBTR) = test: Test 25 field trial, postemergence, growth as percent of control; format: in vivo, Ambrosia trifida; settings: 14 DAA
Excerpt: as §2, §3

wild buckwheat (POLCO) = test: Test 4 field trial, postemergence; format: in vivo, Polygonum convolvulus
Procedure: (§4) A field trial was conducted to evaluate the effects of mixtures of Compound 2 with commercial herbicides on spring wheat (TRZAS, Triticum aestivum L.) and several weed species. Wheat seeds (cv. ‘AC Intrepid’) were planted in late spring season, 3.8 cm deep in a loam soil having 2.7% organic matter and a pH of 7. Plots were 6 m long by 2.5 m wide. The field was managed using no-till practices. The plots were arranged in a randomized complete block design with each treatment being replicated four times. Treatments were applied postemergence 25 days after planting using a backpack sprayer delivering a spray volume of 55 L/ha using a pressure of 276 kPa. […] Compound 2 and clodinafop treatments, alone and in combination, also included a surfactant. Weed species present in the experimental plots in sufficient quantity to be evaluated included wild oat (AVEFA, Avena fatua L.), common lambsquarters (CHEAL, Chenopodium album L.), kochia (KCHSC, Kochia scoparia (L.) Schrad.), wild buckwheat (POLCO, Polygonum convolvulus L.), Russian thistle (SASKR, Salsola kali L. ssp. ruthenica (Iljin) Soo), and field pennycress (THLAR, Thlaspi arvense L.). […] Common lambsquarters was evaluated only at 14 days after application. […] Results are the means of the four replicates.

kochia (KCHSC) = test: Test 4 field trial, postemergence; format: in vivo, Kochia scoparia
Procedure: as §4

common ragweed (AMBEL) = test: Test 25 field trial, postemergence, growth as percent of control; format: in vivo, Ambrosia artemisiifolia
Excerpt: as §2, §3

[2] = test system: common lambsquarters (CHEAL); test: as above; format: in vivo, Chenopodium album
Excerpt: as §2, §3

[3] = 14 DAA, Cpd 2 30 g a.i./ha alone or with clodinafop 56 or fenoxaprop 90
[4] = 35 DAA, Cpd 2 30 g a.i./ha alone or with clodinafop 56 or fenoxaprop 90

COC(=O)c1nc(C2CC2)nc(N)c1Cl [Compound 2, methyl 6-amino-5-chloro-2-cyclopropyl-4-pyrimidinecarboxylate]
VIOAR Obs (scale 0 to 100) (field violet (VIOAR); Cpd 2 4 g a.i./ha): 47 | VIOAR Obs (scale 0 to 100) (field violet (VIOAR); Cpd 2 8 g a.i./ha): 62 | VIOAR Obs (scale 0 to 100) (field violet (VIOAR); Cpd 2 16 g a.i./ha): 72 | Obs response, scale 0 to 100 (velvetleaf (ABUTH); 15 g a.i./ha): 31 | Obs response, scale 0 to 100 (velvetleaf (ABUTH); 30 g a.i./ha): 38 | Obs response, scale 0 to 100 (velvetleaf (ABUTH); 45 g a.i./ha): 61 | STEME Obs (scale 0 to 100) (common chickweed (STEME); Cpd 2 4 g a.i./ha): 47 | STEME Obs (scale 0 to 100) (common chickweed (STEME); Cpd 2 8 g a.i./ha): 63 | STEME Obs (scale 0 to 100) (common chickweed (STEME); Cpd 2 16 g a.i./ha): 67 | ZEAMD Obs (percent of control) (corn (ZEAMD); 14 days after application): 100% | ZEAMD Obs (percent of control) (corn (ZEAMD); 56 days after application): 100% | POLPY Obs (percent of control) ([1]; Cpd 2 15 g a.i./ha): 95% | POLPY Obs (percent of control) ([1]; Cpd 2 30 g a.i./ha): 55% | POLPY Obs (percent of control) ([1]; Cpd 2 45 g a.i./ha): 65% | MATCH Obs (scale 0 to 100) (wild chamomile (MATCH); Cpd 2 4 g a.i./ha): 55 | MATCH Obs (scale 0 to 100) (wild chamomile (MATCH); Cpd 2 8 g a.i./ha): 65 | MATCH Obs (scale 0 to 100) (wild chamomile (MATCH); Cpd 2 16 g a.i./ha): 72 | AMBTR Obs (percent of control) (giant ragweed (AMBTR); Cpd 2 30 g a.i./ha): 5% | AMBTR Obs (percent of control) (giant ragweed (AMBTR); Cpd 2 45 g a.i./ha): 0% | POLCO Obs (wild buckwheat (POLCO); [3]): 61 | POLCO Obs (wild buckwheat (POLCO); 14 DAA, Cpd 2 60 g a.i./ha alone or with clodinafop 56 or fenoxaprop 90): 63 | POLCO Obs (wild buckwheat (POLCO); [4]): 51 | POLCO Obs (wild buckwheat (POLCO); 35 DAA, Cpd 2 60 g a.i./ha alone or with clodinafop 56 or fenoxaprop 90): 55 | KCHSC Obs (kochia (KCHSC); [3]): 95 | KCHSC Obs (kochia (KCHSC); [4]): 99 | KCHSC Obs (kochia (KCHSC); 35 DAA, Cpd 2 60 g a.i./ha alone): 96 | AMBEL Obs (percent of control) (common ragweed (AMBEL); Cpd 2 15 g a.i./ha, 14 DAA): 20% | AMBEL Obs (percent of control) (common ragweed (AMBEL); Cpd 2 15 g a.i./ha, 28 DAA): 16% | AMBEL Obs (percent of control) (common ragweed (AMBEL); Cpd 2 15 g a.i./ha, 56 DAA): 0% | AMBEL Obs (percent of control) (common ragweed (AMBEL); Cpd 2 30 g a.i./ha, 14 DAA): 22% | AMBEL Obs (percent of control) (common ragweed (AMBEL); Cpd 2 30 g a.i./ha, 28 DAA): 12% | AMBEL Obs (percent of control) (common ragweed (AMBEL); Cpd 2 30 g a.i./ha, 56 DAA): 0% | AMBEL Obs (percent of control) (common ragweed (AMBEL); Cpd 2 45 g a.i./ha, 14 DAA): 12% | AMBEL Obs (percent of control) (common ragweed (AMBEL); Cpd 2 45 g a.i./ha, 28 DAA): 8% | AMBEL Obs (percent of control) (common ragweed (AMBEL); Cpd 2 45 g a.i./ha, 56 DAA): 0% | CHEAL Obs (percent of control) ([2]; Cpd 2 15 g a.i./ha, 14 DAA): 15% | CHEAL Obs (percent of control) ([2]; Cpd 2 15 g a.i./ha, 28 DAA): 2% | CHEAL Obs (percent of control) ([2]; Cpd 2 15 g a.i./ha, 56 DAA): 0% | CHEAL Obs (percent of control) ([2]; Cpd 2 30 g a.i./ha, 14 DAA): 20% | CHEAL Obs (percent of control) ([2]; Cpd 2 30 g a.i./ha, 28 DAA): 1% | CHEAL Obs (percent of control) ([2]; Cpd 2 30 g a.i./ha, 56 DAA): 0% | CHEAL Obs (percent of control) ([2]; Cpd 2 45 g a.i./ha, 14 DAA): 7% | CHEAL Obs (percent of control) ([2]; Cpd 2 45 g a.i./ha, 28 DAA): 0% | CHEAL Obs (percent of control) ([2]; Cpd 2 45 g a.i./ha, 56 DAA): 0%
